Laboratory results reported in the supplement of paper PMC13380429.

What was measured:
Conditions in all cases: 72 h
[1] = tested on: Caco-2; test: cell viability relative to DMSO; higher = less toxic
[2] = tested on: HepG2; test: as above
[3] = tested on: U2OS; test: as above
[4] = tested on: Vero E6; test: as above
[5] = tested on: Caco-2; test: relative viability EC50 (midpoint between 100% and the lowest measured viability); higher = less toxic
[6] = tested on: HepG2; test: as above
[7] = tested on: U2OS; test: as above
[8] = tested on: Vero E6; test: as above
[9] = tested on: Caco-2; test: drug sensitivity score (DSS) for viability; higher = more toxic; extreme values may be limits of the assay
[10] = tested on: HepG2; test: as above
[11] = tested on: U2OS; test: as above
[12] = tested on: Vero E6; test: as above
[13] = tested on: Calu-3; test: cell viability relative to DMSO; higher = less toxic
[14] = tested on: Calu-3; test: relative viability EC50 (midpoint between 100% and the lowest measured viability); higher = less toxic
[15] = tested on: Calu-3; test: drug sensitivity score (DSS) for viability; higher = more toxic; extreme values may be limits of the assay

Row | SMILES | cell viability ([1]; 1 nM) [%] | cell viability ([1]; 10 nM) [%] | cell viability ([1]; 100 nM) [%] | cell viability ([1]; 1000 nM) [%] | cell viability ([1]; 10000 nM) [%] | cell viability ([2]; 1 nM) [%] | cell viability ([2]; 10 nM) [%] | cell viability ([2]; 100 nM) [%] | cell viability ([2]; 1000 nM) [%] | cell viability ([2]; 10000 nM) [%] | cell viability ([3]; 1 nM) [%] | cell viability ([3]; 10 nM) [%] | cell viability ([3]; 100 nM) [%] | cell viability ([3]; 1000 nM) [%] | cell viability ([3]; 10000 nM) [%] | cell viability ([4]; 1 nM) [%] | cell viability ([4]; 10 nM) [%] | cell viability ([4]; 100 nM) [%] | cell viability ([4]; 1000 nM) [%] | cell viability ([4]; 10000 nM) [%] | relative viability EC50 [5] [nM] | relative viability EC50 [6] [nM] | relative viability EC50 [7] [nM] | relative viability EC50 [8] [nM] | drug sensitivity score [9] | drug sensitivity score [10] | drug sensitivity score [11] | drug sensitivity score [12] | cell viability ([13]; 1 nM) [%] | cell viability ([13]; 10 nM) [%] | cell viability ([13]; 100 nM) [%] | cell viability ([13]; 1000 nM) [%] | cell viability ([13]; 10000 nM) [%] | relative viability EC50 [14] [nM] | drug sensitivity score [15]
1 | Nc1nccc2c1ncn2[C@@H]1O[C@H](CO)[C@@H](O)[C@@H]1O [3-deazaadenosine] | 89.8 | 101 | 97.9 | 89.2 | 97 | 97.9 | 103 | 95.6 | 97.3 | 96.1 | 99.9 | 99.4 | 97.7 | 103 | 95.8 | 87.4 | 100 | 90.8 | 92.8 | 95.1 | > 10000 | > 10000 | > 10000 | > 10000 | 0 | 0 | 0 | 0 |  |  |  |  |  |  | 
2 | CCC(=O)N[C@@H]1Cc2ccccc2[C@H](c2ccccc2)C1 [4-P-PDOT] | 103 | 95.4 | 100 | 95.1 | 94.4 | 106 | 111 | 99 | 88.9 | 108 |  |  |  |  |  | 95.9 | 97.4 | 100 | 96.1 | 98.5 | > 10000 | > 10000 |  | > 10000 | 0 | 0 |  | 0 | 105 | 94.6 | 104 | 114 | 102 | > 10000 | 0
3 | O=c1cccc2n1C[C@H]1C[C@@H]2CN(CCN2C[C@@H]3C[C@H](C2)c2cccc(=O)n2C3)C1 [CC4] | 98.2 | 100 | 91.4 | 93.1 | 98.3 | 91.3 | 91.9 | 93.9 | 97.4 | 93.4 |  |  |  |  |  | 97.4 | 94.6 | 98.8 | 92.8 | 101 | > 10000 | > 10000 |  | > 10000 | 0 | 0 |  | 0 | 87.1 | 104 | 101 | 119 | 104 | > 10000 | 0
4 | Cc1sc2c(c1C)C(c1ccc(Cl)cc1)=N[C@@H](CC(N)=O)c1nnc(C)n1-2 [CPI-203] | 100 | 95.8 | 88.9 | 76.3 | 70.5 | 91.8 | 94.3 | 81.3 | 40.2 | 35.2 | 93.9 | 94.4 | 86.1 | 57.9 | 43.6 | 96.4 | 93.9 | 73.7 | 15.4 | 11 |  | 186 | 302 | 172 | 4.7 | 13.2 | 9.3 | 18.6 | 98.3 | 105 | 100 | 78.3 | 60 |  | 4.7
5 | Cc1noc2c1-c1ccccc1C(c1ccc(Cl)cc1)=N[C@H]2CC(N)=O [CPI-0610] | 104 | 108 | 106 | 94.5 | 80.6 | 109 | 111 | 101 | 75.2 | 49.4 | 105 | 108 | 97.3 | 84.1 | 47.6 | 111 | 108 | 88.4 | 38.5 | 16.2 | > 10000 | 1020 | 1420 | 449 | 1.2 | 5.9 | 5.1 | 13 | 103 | 99.7 | 105 | 90 | 64.7 |  | 3.2
6 | CSc1nc(N)cc(Oc2ccc(-c3nnc(Nc4cccc(C(F)(F)F)c4)[nH]3)cc2)n1 [KG-5] | 96.7 | 98.7 | 105 | 84.1 | 35.2 | 93.9 | 96 | 92.5 | 99.6 | 25.2 | 102 | 101 | 97.5 | 92.9 | 34.7 | 98.9 | 103 | 105 | 94.8 | 33.1 | 1570 | 3120 | 2260 | 2540 | 6 | 4.2 | 4.8 | 4.5 | 90.3 | 95.4 | 92.7 | 93.2 | 61.8 |  | 3
